Results as given in US9169315B2, “Heparin cofactor II fragments with anti-inflammatory and anti-coagulant activity” (XIMMUNE AB, priority 2009, dated 2015).
No end group written: not given here.

Key:
[1] = system: E. coli, P. aeruginosa and S. aureus; experiment: Viable count assay; type: cell-based; settings: for Antibacterial activity in viable count assays / Time within which bacterial killing occurred: 10 mM Tris, 0.15 M NaCl; for Antibacterial activity in viable count assays: with or without 20% human citrate plasma; for Time within which bacterial killing occurred: 30 μM, pH 7.4, 20% plasma
Protocol: E. coli ATCC 25922 bacteria were grown to mid-logarithmic phase in Todd-Hewitt (TH) medium. Bacteria were washed and diluted in 10 mM Tris, pH 7.4 containing 5 mM glucose. E. coli ATCC 25922 ([…]; 2×10^6 cfu/ml) were incubated, at 37° C. for 2 h with peptides at the indicated concentrations. Other experiments with the TFPI-peptides and LL-37 were performed in 10 mM Tris, pH 7.4, containing also 0.15 M NaCl, with normal or heat inactivated 20% citrate-plasma (PP). Serial dilutions of the incubation mixture were plated on TH agar, followed by incubation at 37° C. overnight and cfu determination.
(§1) E. coli ATCC 25922, P. aeruginosa 15159, or S. aureus ATCC 29213 bacteria were grown to mid-logarithmic phase in Todd-Hewitt (TH) medium (Becton and Dickinson, Maryland, USA). The microorganisms were then washed and diluted in 10 mM Tris, pH 7.4 containing 5 mM glucose. Following this, bacteria (50 μl; 2×10^6 cfu/ml) were incubated, at 37° C. for 2 hours, with KYE28, KYE21 or LL-37 (at 0.03, 0.06, 0.3, 0.6, 3, 6, 30, 60 μM) in 10 mM Tris, 0.15 M NaCl, with or without 20% human citrate-plasma. To quantify the bactericidal activity, serial dilutions of the incubation mixtures were plated on TH agar, followed by incubation at 37° C. overnight and the number of colony-forming units was determined. 100% survival was defined as total survival of bacteria in the same buffer and under the same condition in the absence of peptide. Significance was determined using the statistical software SigmaStat (SPSS Inc., Chicago, Ill., USA).
as §1, with “NLF20” for “KYE28, KYE21”, “citrate-plasma. In the experiments using 50% whole blood, S. aureus ATCC 29213 and P. aeruginosa ATCC 27853 bacteria (50 μl; 2×10^8 cfu/ml) were incubated at 37° C. for 1 hour in the presence of peptide at 60 (for P. aeruginosa) and 120 μM (P. aeruginosa and S. aureus).” for “citrate-plasma.”

[2] = Liposome leakage assay (carboxyfluorescein release); settings: for CF release from liposomes: 10 mM Tris-buffer
Excerpt: The liposomes investigated were anionic (DOPE/DOPG 75/25 mol/mol). DOPG (1,2-Dioleoyl-sn-Glycero-3-Phosphoglycerol, monosodium salt), and DOPE (1,2-dioleoyl-sn-Glycero-3-phoshoetanolamine) were all from Avanti Polar Lipids (Alabaster, USA) and of >99% purity. Due to the long, symmetric and unsaturated acyl chains of these phospholipids, several methodological advantages are reached. In particular, membrane cohesion is good, which facilitates very stable, unilamellar, and largely defect-free liposomes (observed from cryo-TEM) and well defined supported lipid bilayers (observed by ellipsometry and AFM), allowing detailed values on leakage and adsorption density to be obtained. The lipid mixtures were dissolved in chloroform, after which solvent was removed by evaporation under vacuum overnight. Subsequently, 10 mM Tris buffer, pH 7.4, was added together with 0.1 M carboxyfluorescein (CF) (Sigma, St. Louis, USA). After hydration, the lipid mixture was subjected to eight freeze-thaw cycles consisting of freezing in liquid nitrogen and heating to 60° C. Unilamellar liposomes of about Ø140 nm were generated by multiple extrusions through polycarbonate filters (pore size 100 nm) mounted in a LipoFast miniextruder (Avestin, Ottawa, Canada) at 22° C. Untrapped CF was removed by two subsequent gel filtrations (Sephadex G-50, GE Healthcare, Uppsala, Sweden) at 22° C., with Tris buffer as eluent. CF release from the liposomes was determined by monitoring the emitted fluorescence at 520 nm from a liposome dispersion ([…] in 10 mM Tris, pH 7.4). An absolute leakage scale was obtained by disrupting the liposomes at the end of each experiment through addition of 0.8 mM Triton X-100 (Sigma-Aldrich, St. Louis, USA). A SPEX-fluorolog 1650 0.22-m double spectrometer (SPEX Industries, Edison, USA) was used for the liposome leakage assay in Tris buffer in the absence and presence of liposomes under conditions described above. Measurements were performed in triplicate at 37° C.
The liposomes investigated were either zwitterionic (DOPC/cholesterol 60/40 mol/mol or DOPC without cholesterol) or anionic (DOPE/DOPG 75/25 mol/mol). DOPG (1,2-Dioleoyl-sn-Glycero-3-Phosphoglycerol, monosodium salt), DOPC (1,2-dioleoyl-sn-Glycero-3-phoshocholine), and DOPE (1,2-dioleoyl-sn-Glycero-3-phoshoetanolamine) were all from Avanti Polar Lipids (Alabaster, USA) and of >99% purity, while cholesterol (>99% purity), was from Sigma-Aldrich (St. Louis, USA). Due to the long, symmetric and unsaturated acyl chains of these phospholipids, several methodological advantages are reached. […] CF release from the liposomes was determined by monitoring the emitted fluorescence at 520 nm from a liposome dispersion (10 mM lipid in 10 mM Tris, pH 7.4). […]

Sequence	Antibacterial activity in viable count assays [1]	Time within which ~80% of the maximal CF release occurred [2] [min]	CF release from liposomes [2]	Time within which bacterial killing occurred [1] [min]	Antibacterial activity in presence of human citrated plasma (viable count) ([1]; 20% human citrate plasma vs buffer)
KYEITTIHNLFRKLTHRLFRR [KYE21]	significant antibacterial activity	5 to 10	caused CF release		
KYEITTIHNLFRKLTHRLFRRNFGYTLR [KYE28]	significant antibacterial activity			5 to 20	
NLFRKLTHRLFRRNFGYTLR [NLF20]	displays significant antibacterial activity	5 to 10	caused CF release	5 to 20	retained, and for E. coli and S. aureus, even enhanced
